The values below are quoted from earlier work in patent US20130327676A1, “Packaging of Solid Pharmaceutical Preparations Containing the Active Substance Glyceryl Trinitrate” (G. Pohl-Boskamp GmbH & Co. KG, priority 2011, published 2013).

In general, vapor pressure refers to the pressure of vapour in equilibrium with the condensed phase.

For series [1] the following is noted: at 20° C.

As to `O=[N+]([O-])OCC(CO[N+](=O)[O-])O[N+](=O)[O-]` [GTN, glyceryl trinitrate], in series [1], the vapor pressure is 0.25 Pa. Moreover, the “active substance originally contained in the tablets found in the polyethylene” value (polyethylene sealing layer of the packaging material) is 84%. Further, the “active substance remaining in tablets following storage, of originally contained” value (tablets packaged individually in aluminum foil films with polyethylene sealing layer) was “less than 10%”.
